Measured values taken from patent US20250026746A1, “ENHANCERS OF PARTICULATE GUANYLYL CYCLASE RECEPTOR A” (Mayo Foundation for Medical Education and Research, priority 2021, published 2025).

What was measured:
[1] = target: T1, extracellular domain human GC-A recombinant protein (Homo sapiens, UniProt P16066); experiment: Surface plasmon resonance binding to GC-A receptor; settings: acetate salt, SPR 25° C., 1:1 Langmuir model; for kon: read-out: ka association rate; for koff: read-out: kd dissociation rate
T1 construct: extracellular domain human GC-A recombinant protein; purchased My BioSource, Inc. San Diego, CA
T1 sequence (P16066 33-473 limits assumed): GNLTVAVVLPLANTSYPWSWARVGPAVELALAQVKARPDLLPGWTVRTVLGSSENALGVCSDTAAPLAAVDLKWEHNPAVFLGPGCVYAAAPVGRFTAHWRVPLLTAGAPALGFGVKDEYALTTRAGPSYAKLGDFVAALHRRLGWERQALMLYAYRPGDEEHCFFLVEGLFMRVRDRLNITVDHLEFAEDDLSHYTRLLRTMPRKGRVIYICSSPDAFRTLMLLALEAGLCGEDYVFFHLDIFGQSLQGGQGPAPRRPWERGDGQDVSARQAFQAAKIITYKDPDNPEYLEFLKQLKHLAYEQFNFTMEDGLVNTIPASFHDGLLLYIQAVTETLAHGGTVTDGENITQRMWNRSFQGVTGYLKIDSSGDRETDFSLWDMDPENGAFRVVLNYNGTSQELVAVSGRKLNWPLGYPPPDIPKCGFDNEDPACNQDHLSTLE
Procedure: Surface plasmon resonance (SPR) measurements were performed at 25° C. on a BI-4500 SPR instrument (Biosensing Instrument Inc. Tempe AZ). As per the instructions by the Biosensing instrument manual, 400 mM nickel sulfate in deionized water was linked to the Ni-NTA sensor chip (Biosensing Instrument Inc. Tempe AZ. Then 30 μg/ml of extracellular domain human GC-A recombinant protein (My BioSource, Inc. San Diego, CA), containing 12 histidine residues on the C-terminus, was then immobilized to the nickel sulfate on the Ni-NTA sensor chip. After, the chip was washed with buffer (150 mM NaCl, 50 μM EDTA pH 7.4, 0).1% DMSO), then 100 μL of sequentially diluted Compound 3 acetate salt (0.125, 0.25, 0.5, 1, 2 μM), Compound 1 acetate salt (6.25, 12.5, 25, 50, 100 nM) or Compound 2 acetate salt (0.125, 0.25, 0.5, 1, 2 μM) was injected at the rate of 60 ul/min and allowed to dissociate for 60 seconds. Data was collected as sensorgrams. Binding kinetics were derived from sensorgrams using BI-Data Analysis Program (Biosensing Instrument, Tempe AZ). Affinity analysis of GC-A with Compound 3, Compound 2 and/or Compound 1 interactions were performed using a 1:1 Langmuir binding model. Two series were performed for all studies.

human GC-A = target: T2, human GC-A (Homo sapiens, UniProt P16066); experiment: cGMP levels (ELISA) in HEK293 cells overexpressing human GC-A; format: cell-based; settings: acetate salt; for cGMP generation in the presence of ANP: ANP (10^−10 M)
T2 construct: host or cells: HEK293
T2 sequence (P16066 33-1061): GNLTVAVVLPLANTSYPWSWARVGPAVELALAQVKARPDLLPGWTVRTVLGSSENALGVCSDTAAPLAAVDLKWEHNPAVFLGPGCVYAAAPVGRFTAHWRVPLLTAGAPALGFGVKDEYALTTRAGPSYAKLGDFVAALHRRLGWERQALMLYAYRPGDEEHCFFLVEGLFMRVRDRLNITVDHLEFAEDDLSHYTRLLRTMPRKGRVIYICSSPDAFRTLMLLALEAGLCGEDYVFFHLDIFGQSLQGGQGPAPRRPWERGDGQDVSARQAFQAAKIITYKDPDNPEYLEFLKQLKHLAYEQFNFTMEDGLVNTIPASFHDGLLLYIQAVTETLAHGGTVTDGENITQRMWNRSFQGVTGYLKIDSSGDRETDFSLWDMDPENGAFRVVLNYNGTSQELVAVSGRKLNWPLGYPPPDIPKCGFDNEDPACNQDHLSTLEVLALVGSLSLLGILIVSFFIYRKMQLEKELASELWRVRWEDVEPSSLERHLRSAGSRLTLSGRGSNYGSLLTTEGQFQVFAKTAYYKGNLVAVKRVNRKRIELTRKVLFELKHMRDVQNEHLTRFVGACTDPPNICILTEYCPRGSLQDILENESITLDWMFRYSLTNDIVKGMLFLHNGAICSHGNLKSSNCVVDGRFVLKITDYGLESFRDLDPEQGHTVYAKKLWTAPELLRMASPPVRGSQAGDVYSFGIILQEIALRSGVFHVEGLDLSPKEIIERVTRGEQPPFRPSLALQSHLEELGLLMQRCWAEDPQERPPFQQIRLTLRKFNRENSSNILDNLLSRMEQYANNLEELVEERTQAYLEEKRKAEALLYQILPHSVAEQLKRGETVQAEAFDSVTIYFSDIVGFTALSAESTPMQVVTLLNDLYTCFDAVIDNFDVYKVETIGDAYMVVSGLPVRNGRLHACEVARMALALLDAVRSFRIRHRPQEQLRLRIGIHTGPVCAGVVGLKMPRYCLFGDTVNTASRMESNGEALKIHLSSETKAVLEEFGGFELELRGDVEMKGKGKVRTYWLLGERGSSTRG
T2 sequence (P01160 124-151 partner limits assumed): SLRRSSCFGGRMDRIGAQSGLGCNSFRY
Procedure: HEK293 GC-A cells were seeded in 48-well plates (1×10^5 cell per well) and cultured overnight to reach 80-90% confluency. The treatment buffer that consists of Hank's Balanced Salt Solution (HBSS), 0.1% BSA, 2 mM HEPES and 0.5 mM 3-isobutyl-1-methylzanthine (IBMX—a non-specific phosphodiesterase inhibitor), was used in all experiments. Compound 3, Compound 1, and Compound 2 acetate salt were dissolved in DMSO and ANP was dissolved in phosphate buffered solution (PBS). On the experimental day, growth media was replaced with treatment buffer and HEK293 GC-A cells were 1) treated with Compound 3, Compound 1 or Compound 2 at doses of 1 or 10 μM (reaching a final concentration of 0).1% DMSO) alone for 5 min at 37° C.: or 2) pretreated with Compound 3, Compound 1 or Compound 2 at doses of 1 or 10 μM (reaching a final concentration of 0.1% DMSO) for 5 min at 37° C., followed by a treatment with ANP (10^-10 M) for additional 10 min at 37° C. HEK293 GC-A cells were also treated with vehicle (0.1% DMSO) which served as a negative control. Then all cells were washed with PBS once and lysed with 0.1M HCl. Intracellular cGMP was measured in the lysate using a commercial cGMP ELISA kit (Enzo Life Sciences, Farmingdale, NY) as instructed by the manufacturer.

Kd [1] [nM]	kon [1] [M⁻¹ s⁻¹]	koff [1] [s⁻¹]	cGMP generation in the presence of ANP (human GC-A; 1 or 10 μM)	cGMP generation, compound alone (human GC-A; 1 or 10 μM, without ANP, vs vehicle)	cGMP generation in the presence of ANP, Compound 1 compared with Compound 2 (human GC-A; both doses (1 and 10 μM), ANP (10^-10 M))	Structure (SMILES)
121	430000	0.052	dose response increase	–	–	CN(C)CCN1CCC[C@@H](C(=O)Nc2nc3c(F)cc(F)cc3s2)C1 [Compound 2, (R)-N-(4,6-difluorobenzo[d]thiazol-2-yl)-1-(2-(dimethylamino)ethyl) piperidine-3-carboxamide]
176	113000	0.02	dose dependent increase	no effect	–	CN(C)CCN1CCCC(C(=O)Nc2nc3c(F)cc(F)cc3s2)C1 (racemic) [Compound 3, N-(4,6-difluorobenzo[d]thiazol-2-yl)-1-(2-(dimethylamino)ethyl) piperidine-3-carboxamide]
12	1.09e+06	0.014	dose response increase	–	higher	CN(C)CCN1CCC[C@H](C(=O)Nc2nc3c(F)cc(F)cc3s2)C1 [Compound 1, (S)-N-(4,6-difluorobenzo[d]thiazol-2-yl)-1-(2-(dimethylamino)ethyl) piperidine-3-carboxamide]
